What is called EC50 is the concentration giving half of the maximal effect. A high value points to a less potent agent.

These results are taken from patent US20260137710A1, “PHARMACEUTICAL USE OF NUCLEOSIDE COMPOUND” (priority 2022, published 2026).

Series [1] deals with Smallpox virus. The experiment in a line: microbe, parasite or virus in culture. It is filed as cell-based. The note with it: for EC50: Variola virus, HFF-1, 96 h.
Series [2] can be described thus: in vitro. The conditions noted are these: human.
In series [3] the test system is Vaccinia VP13. The experiment in a line: microbe, parasite or virus in culture. Format: cell-based, Vaccinia virus. The conditions noted are these: for EC50: Orthopoxvirus vaccinia, HFF-1, 96 h.
Series [4] deals with Cowpox virus. The experiment in a line: microbe, parasite or virus in culture. It is filed as cell-based. The note with it: for EC50: Cowpox virus, HFF-1, 96 h.
Series [5] concerns Monkeypox virus. The experiment in a line: microbe, parasite or virus in culture. The note with it: for EC50: Monkeypox virus, HFF-1, 96 h. It is filed as cell-based.

Bounds are passed on as bounds.

Consider `[N-]=[N+]=NC1(CO)OC(n2ccc(N)nc2=O)C(F)C1O` (centres unmarked) [Compound 1, Azvudine], for which, in series [1], the “activity to inhibit smallpox virus (in words)” value is “significant inhibitory effect” and the EC50 was determined as 1200 nM. The compound also showed a CC50 in series [2] above 10000 nM. Also, in series [3], the “activity to inhibit vaccinia virus (in words)” value was “significant inhibitory effect” and the EC50 turned out to be 570 nM. Moreover, in series [4], the “activity to inhibit cowpox virus (in words)” value was “significant inhibitory effect” and the EC50 worked out at 750 nM. Further, in series [5], the “activity to inhibit monkeypox virus (in words)” value is on record as “significant inhibitory effect” and it took 320 nM to reach a half-maximal effect (EC50).
Take `O=C(NN1C(=O)[C@@H]2[C@@H]3C=C[C@@H]([C@H]4C[C@@H]34)[C@@H]2C1=O)c1ccc(C(F)(F)F)cc1` [ST-246, reference compound]: the EC50 turned out to be 70 nM in series [1], 40 nM in series [3], 50 nM in series [4] and 30 nM in series [5]. In addition, the CC50 in series [2] was above 100000 nM.
